Measurements taken from ChEMBL document CHEMBL5579896, “Discovery of 2-Aryl-4-aminoquinazolin-Based LSD1 Inhibitors to Activate Immune Response in Gastric Cancer” (J Med Chem, 2024).
Activity calls are given as the source filed them. The rule behind the calls is not given here.

Legend:
[1] = target: T1, Lysine-specific histone demethylase 2 (Homo sapiens) (UniProt Q8NB78); assay: Inhibition of LSD2 (unknown origin) at 10 uM relative to control
T1 sequence (whole entry): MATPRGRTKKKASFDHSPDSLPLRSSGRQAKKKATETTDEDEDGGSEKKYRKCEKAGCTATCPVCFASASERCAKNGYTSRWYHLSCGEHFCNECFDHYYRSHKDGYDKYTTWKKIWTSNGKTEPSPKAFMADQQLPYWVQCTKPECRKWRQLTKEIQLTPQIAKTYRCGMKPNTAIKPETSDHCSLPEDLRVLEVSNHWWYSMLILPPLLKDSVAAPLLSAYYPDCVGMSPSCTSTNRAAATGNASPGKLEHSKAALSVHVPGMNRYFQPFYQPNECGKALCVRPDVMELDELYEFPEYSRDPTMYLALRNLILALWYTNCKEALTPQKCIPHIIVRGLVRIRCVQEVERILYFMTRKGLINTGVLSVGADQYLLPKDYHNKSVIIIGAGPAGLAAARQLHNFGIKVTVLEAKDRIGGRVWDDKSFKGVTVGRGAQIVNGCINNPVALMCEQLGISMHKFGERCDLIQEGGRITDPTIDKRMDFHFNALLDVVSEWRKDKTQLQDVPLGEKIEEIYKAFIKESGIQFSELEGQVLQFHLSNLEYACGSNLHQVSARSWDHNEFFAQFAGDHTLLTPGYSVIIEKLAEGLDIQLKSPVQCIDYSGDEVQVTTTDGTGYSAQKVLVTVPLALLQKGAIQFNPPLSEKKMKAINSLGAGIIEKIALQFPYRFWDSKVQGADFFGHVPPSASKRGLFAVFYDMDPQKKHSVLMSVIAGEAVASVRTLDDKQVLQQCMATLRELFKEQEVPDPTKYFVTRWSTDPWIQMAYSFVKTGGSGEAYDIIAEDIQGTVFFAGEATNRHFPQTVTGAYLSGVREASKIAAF

[2] = target: T2, MAO-A (Amine oxidase [flavin-containing] A) (Homo sapiens, UniProt P21397); assay: Inhibition of MAO-A (unknown origin) at 10 uM relative to control
T2 sequence (P21397 whole entry): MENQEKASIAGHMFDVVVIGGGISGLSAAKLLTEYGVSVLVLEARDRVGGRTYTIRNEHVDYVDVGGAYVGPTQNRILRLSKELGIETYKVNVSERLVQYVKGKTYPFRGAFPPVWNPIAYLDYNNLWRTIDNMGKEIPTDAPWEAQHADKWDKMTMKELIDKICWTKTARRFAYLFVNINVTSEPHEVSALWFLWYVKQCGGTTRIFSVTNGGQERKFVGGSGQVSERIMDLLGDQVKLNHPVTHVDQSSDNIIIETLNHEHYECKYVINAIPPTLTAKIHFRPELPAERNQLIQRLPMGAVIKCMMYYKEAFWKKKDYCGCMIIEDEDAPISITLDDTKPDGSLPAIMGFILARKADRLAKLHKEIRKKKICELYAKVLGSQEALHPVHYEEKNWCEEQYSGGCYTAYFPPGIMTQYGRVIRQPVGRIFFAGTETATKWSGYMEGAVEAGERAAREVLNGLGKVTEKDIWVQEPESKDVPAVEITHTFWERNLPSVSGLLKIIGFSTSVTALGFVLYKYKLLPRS

[3] = target: T3, MAO-B (Amine oxidase [flavin-containing] B) (Homo sapiens, UniProt P27338); assay: Inhibition of MAO-B (unknown origin) at 10 uM relative to control
T3 sequence (P27338 whole entry): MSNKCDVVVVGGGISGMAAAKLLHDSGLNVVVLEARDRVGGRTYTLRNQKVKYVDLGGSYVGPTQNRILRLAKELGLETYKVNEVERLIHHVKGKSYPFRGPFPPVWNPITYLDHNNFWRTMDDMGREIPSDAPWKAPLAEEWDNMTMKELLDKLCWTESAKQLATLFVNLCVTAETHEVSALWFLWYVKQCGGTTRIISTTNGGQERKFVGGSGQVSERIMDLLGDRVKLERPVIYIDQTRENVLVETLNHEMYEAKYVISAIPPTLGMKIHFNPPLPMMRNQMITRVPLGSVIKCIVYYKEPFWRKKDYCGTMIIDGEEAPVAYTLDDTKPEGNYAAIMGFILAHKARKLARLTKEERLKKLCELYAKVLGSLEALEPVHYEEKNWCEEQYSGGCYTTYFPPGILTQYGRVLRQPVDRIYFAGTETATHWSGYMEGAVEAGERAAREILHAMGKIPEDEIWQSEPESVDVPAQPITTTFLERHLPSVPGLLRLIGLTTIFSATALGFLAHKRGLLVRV

[4] = target: T4, Lysine-specific histone demethylase 2 (Homo sapiens, UniProt Q8NB78); assay: Inhibition of LSD2 (unknown origin)
T4 sequence (Q8NB78 whole entry): T1 sequence (whole entry)

[5] = target: T5, Amine oxidase [flavin-containing] A (Homo sapiens, UniProt P21397); assay: Inhibition of MAO-A (unknown origin)
T5 sequence (P21397 whole entry): T2 sequence (P21397 whole entry)

[6] = target: T6, Amine oxidase [flavin-containing] B (Homo sapiens, UniProt P27338); assay: Inhibition of MAO-B (unknown origin)
T6 sequence (P27338 whole entry): T3 sequence (P27338 whole entry)

[7] = target: T7, Histone-lysine N-methyltransferase EHMT2 (Homo sapiens) (UniProt Q96KQ7); assay: Inhibition of G9a (unknown origin)
T7 sequence (whole entry): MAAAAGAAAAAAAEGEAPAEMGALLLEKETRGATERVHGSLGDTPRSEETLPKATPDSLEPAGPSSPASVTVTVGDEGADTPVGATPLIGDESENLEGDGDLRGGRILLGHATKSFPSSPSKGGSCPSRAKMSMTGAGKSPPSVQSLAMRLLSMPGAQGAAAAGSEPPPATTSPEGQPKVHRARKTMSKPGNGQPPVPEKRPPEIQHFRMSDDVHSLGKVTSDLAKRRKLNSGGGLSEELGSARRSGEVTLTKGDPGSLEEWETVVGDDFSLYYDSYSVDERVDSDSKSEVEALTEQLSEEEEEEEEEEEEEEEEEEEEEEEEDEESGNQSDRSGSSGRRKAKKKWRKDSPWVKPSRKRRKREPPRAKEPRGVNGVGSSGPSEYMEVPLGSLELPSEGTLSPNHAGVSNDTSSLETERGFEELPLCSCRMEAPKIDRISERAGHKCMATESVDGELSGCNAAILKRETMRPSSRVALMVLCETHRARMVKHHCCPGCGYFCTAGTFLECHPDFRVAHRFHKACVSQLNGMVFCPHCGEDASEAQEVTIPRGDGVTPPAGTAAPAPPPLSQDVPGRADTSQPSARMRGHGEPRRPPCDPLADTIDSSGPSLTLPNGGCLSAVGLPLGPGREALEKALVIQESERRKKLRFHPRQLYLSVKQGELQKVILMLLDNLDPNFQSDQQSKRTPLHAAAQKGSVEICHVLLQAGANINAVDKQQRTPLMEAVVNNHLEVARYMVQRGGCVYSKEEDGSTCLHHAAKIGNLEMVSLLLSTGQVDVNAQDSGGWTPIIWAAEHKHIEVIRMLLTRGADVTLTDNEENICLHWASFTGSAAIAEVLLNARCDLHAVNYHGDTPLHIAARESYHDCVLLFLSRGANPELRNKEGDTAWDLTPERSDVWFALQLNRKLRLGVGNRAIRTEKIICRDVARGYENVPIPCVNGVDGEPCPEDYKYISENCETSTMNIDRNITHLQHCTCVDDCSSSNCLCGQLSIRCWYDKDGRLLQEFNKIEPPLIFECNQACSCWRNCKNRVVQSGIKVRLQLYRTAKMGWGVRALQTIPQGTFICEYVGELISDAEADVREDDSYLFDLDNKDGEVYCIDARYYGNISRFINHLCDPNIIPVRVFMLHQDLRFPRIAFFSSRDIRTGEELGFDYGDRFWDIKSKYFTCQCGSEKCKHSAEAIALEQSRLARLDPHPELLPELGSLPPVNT

[8] = target: Epidermal growth factor receptor (Homo sapiens) (UniProt P00533); assay: Inhibition of EGFR (unknown origin)
Sequence of Epidermal growth factor receptor (Homo sapiens) (P00533 whole entry): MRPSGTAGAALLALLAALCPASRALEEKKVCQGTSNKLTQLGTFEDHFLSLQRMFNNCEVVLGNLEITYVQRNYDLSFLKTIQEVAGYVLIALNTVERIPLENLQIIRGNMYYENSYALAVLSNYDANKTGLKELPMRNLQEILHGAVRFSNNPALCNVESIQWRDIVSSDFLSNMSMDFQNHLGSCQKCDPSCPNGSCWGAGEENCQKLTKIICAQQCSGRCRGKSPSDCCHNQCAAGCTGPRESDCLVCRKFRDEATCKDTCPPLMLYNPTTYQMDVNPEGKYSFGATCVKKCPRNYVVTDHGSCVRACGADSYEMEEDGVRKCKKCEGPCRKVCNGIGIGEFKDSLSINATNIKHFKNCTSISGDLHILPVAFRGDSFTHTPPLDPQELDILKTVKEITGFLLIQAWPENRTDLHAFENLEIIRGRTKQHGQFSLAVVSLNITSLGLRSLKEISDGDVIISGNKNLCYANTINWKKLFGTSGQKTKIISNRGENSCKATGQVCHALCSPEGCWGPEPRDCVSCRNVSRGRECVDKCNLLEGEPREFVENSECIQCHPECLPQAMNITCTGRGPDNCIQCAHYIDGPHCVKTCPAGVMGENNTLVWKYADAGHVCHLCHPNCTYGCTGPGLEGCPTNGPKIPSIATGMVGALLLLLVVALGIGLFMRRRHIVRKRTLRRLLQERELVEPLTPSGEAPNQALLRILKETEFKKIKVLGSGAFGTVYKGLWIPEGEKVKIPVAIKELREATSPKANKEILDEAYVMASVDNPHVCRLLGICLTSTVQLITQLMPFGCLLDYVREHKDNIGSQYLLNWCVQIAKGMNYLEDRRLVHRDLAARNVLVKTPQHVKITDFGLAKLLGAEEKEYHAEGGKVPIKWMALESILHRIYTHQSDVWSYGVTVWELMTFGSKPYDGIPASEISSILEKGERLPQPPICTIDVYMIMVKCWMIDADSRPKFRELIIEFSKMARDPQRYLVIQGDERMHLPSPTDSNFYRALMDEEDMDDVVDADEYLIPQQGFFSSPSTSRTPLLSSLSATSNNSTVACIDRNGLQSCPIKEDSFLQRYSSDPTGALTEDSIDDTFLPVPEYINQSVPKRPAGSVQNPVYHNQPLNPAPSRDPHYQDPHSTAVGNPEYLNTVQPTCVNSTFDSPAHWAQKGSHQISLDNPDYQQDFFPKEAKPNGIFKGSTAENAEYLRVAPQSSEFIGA

BGC-823 [9] = assay: Effect on LSD1 expression in human BGC-823 cells by Western blotting analysis; type: functional, cell-based
BGC-823 [10] = assay: Effect on H3K4me1 methylation in LSD1 knockout human BGC-823 cells at 2 to 8 uM by Western blotting analysis; type: functional, cell-based; settings: dose 2-8 µM
BGC-823 [11] = assay: Effect on H3K4me2 methylation in LSD1 knockout human BGC-823 cells at 2 to 8 uM by Western blotting analysis; type: functional, cell-based; settings: dose 2-8 µM
BGC-823 [12] = assay: Effect on H3K4me3 methylation in LSD1 knockout human BGC-823 cells at 2 to 8 uM by Western blotting analysis; type: functional, cell-based; settings: dose 2-8 µM
BGC-823 [13] = assay: Downregulation of PD-L1 expression in human BGC-823 cells incubated for 5 days by Western blotting analysis; type: functional, cell-based; settings: dose 2-8 µM, time 5.0 day
BGC-823 [14] = assay: Downregulation of PD-L1 expression in human BGC-823 cells at 2 to 8 uM by Western blotting analysis; type: functional, cell-based; settings: dose 2-8 µM, TDE = time-dependent effect
MFC [15] = assay: Downregulation of PD-L1 expression in MFC cells incubated for 5 days by Western blotting analysis; type: functional, cell-based; settings: Mus musculus, dose 2-8 µM, time 5.0 day
MFC [16] = assay: Downregulation of PD-L1 expression in MFC cells at 2 to 8 uM by Western blotting analysis; type: functional, cell-based; settings: Mus musculus, dose 2-8 µM, TDE = time-dependent effect
BGC-823 [17] = assay: Downregulation of PD-L1 expression in LSD1 knockout human BGC-823 cells at 2 to 8 uM incubated for 5 days by flow cytometry analysis; type: functional, cell-based; settings: dose 2-8 µM, time 5.0 day
BGC-823 [18] = assay: Cytotoxicity against human BGC-823 cells assessed as reduction in cell viability at 8 uM incubated for 5 days by SRB assay; type: toxicity, cell-based; settings: bgc-823, 120 h, time 5 day
[19] = target: Programmed cell death protein 1/Programmed cell death 1 ligand 1 (Homo sapiens) (UniProt Q15116+Q9NZQ7); assay: Inhibition of PD-1 to PD-L1 protein-protein interaction in human BGC-823 cells incubated for 5 days by DAPI staining based confocal microscopic analysis; type: cell-based; settings: dose 2-8 µM, time 5.0 day

inhibition [1]: < 10%
inhibition at 10 µM [2]: < 10%
inhibition at 10 µM [3]: < 10%
IC50 [4]: > 10 µM
IC50 [5]: > 10 µM
IC50 [6]: > 10 µM
inhibition [7]: inactive
inhibition [8]: inactive
Compound: CCN(CC)c1ccc(Nc2nc(-c3ccc(S(C)(=O)=O)cc3)nc3ccccc23)cc1
Activity (BGC-823 [9]): inactive
Activity (BGC-823 [10]): inactive
Activity (BGC-823 [11]): inactive
Activity (BGC-823 [12]): inactive
Activity (BGC-823 [13]): Dose-Dependent Effect
Activity (BGC-823 [14]): Tde
Activity (MFC [15]): Dose-Dependent Effect
Activity (MFC [16]): Tde
Activity (BGC-823 [17]): inactive
Activity (BGC-823 [18]): Non-Toxic
inhibition [19]: Dose-Dependent Effect
